Experimental data published in US20200323811A1, “INTRANASAL PHARMACEUTICAL COMPOSITION COMPRISING ANTICANCER DRUGCONTAINING NANOPARTICLES FOR TREATING BRAIN DISEASES” (INDUSTRY-UNIVERSITY COOPERATION FOUNDATION HANYANG …, priority 2016, published 2020).

Key:
[1] = In vivo toxicity by body weight of inoculated animals; parameters: species or system rat; conditions: glioblastoma rats, 2 mg/kg intranasal
Experimental: Further, the in vivo toxicity of NPs was evaluated by measuring a body weight of the inoculated animal. The change in body weight is reliable indicator for assessing the in vivo toxicity of a delivered drug. […] However, an insignificant change in body weight was shown in all animals due to cancer mass over time after tumor implantation (FIG. 8).

[2] = tested on: rat glioma cells; assay: Annexin V / 7-AAD apoptosis flow cytometry; type: cell-based; conditions: 24 hours
Experimental: (§1) The rat (C6) and human (U87MG) glioblastoma cells used in this experiment were obtained from ATCC (Rockville, Md.), and cultured in Dulbecco's Modified Eagle's Medium (DMEM) containing 10% fetal bovine serum, penicillin (100 IU/mL) and streptomycin (100 μg/mL) at 37° C. in a 5% CO2 incubator. For all in vitro experiments, the cells were seeded in a 12-well plate at a density of 1×10^5 cells/well.

[3] = tested on: C6-Luc glioblastoma; assay: Intracranial C6-Luc orthotopic glioblastoma model, intranasal inoculation; type: in vivo, Sprague-Dawley rats
Experimental: The therapeutic efficacy of intranasally-delivered PTX-loaded NPs was evaluated in an intracranial C6-Luc orthotropic model. […] Therefore, as a PTX solvent, DMSO was used. In addition, to minimize DMSO-associated cytotoxicity, the PTX-loaded NPs were dissolved in PBS. The intranasal inoculation started at day 4 after tumor administration and was performed daily for a total of three times.
(§2) Specifically, intracranial tumor models were established from 6-week-old male Sprague-Dawley rats. The anesthetized rats were placed in a stereotaxic frame, and the skull was gently exposed to spot the bregma. The monitoring points for the bregma were as follows: anteroposterior, 0 mm; lateral, 2.0 mm; and ventral, 4.0 mm. A fine burr hole (0.7 mm) was created in the skull without disrupting the dura using a microsurgical drill. A total of 2×10^5/10 μl C6-Fluc cells were injected using a 26-gauge Hamilton microsyringe (80330; Reno, Nev., USA) at a speed of 0.9 μl/min. To generate a human glioblastoma model, 1×10^5/[…] of U87MG-Fluc cells were inoculated into immunodeficient nude mice by the same method. After the operation, the skin was sutured.
In vivo and ex vivo bioluminescence imaging was performed. For in vivo bioluminescence imaging, 150 mg/kg of D-luciferin (Caliper, Hopkinton, Mass.) was intraperitoneally injected into anesthetized animals. The live images were taken 15 minutes after the injection of D-luciferin by the IVIS Lumina caliper series (Life Technologies, Carlsbad, Calif.). […]
For Nissl staining, paraffin-embedded brain sections were deparaffinized, rehydrated, and then subjected to treatment with a 0.1% crystal violet solution according to a standard protocol. […] The cancer volume was calculated using ImageJ software as described above. […]
To investigate apoptosis in the de-paraffinized and hydrated brain sections, the TUNEL assay was performed using an in situ apoptosis detection kit (Millipore) according to the manufacturer's instruction. […] Fluorescent signals of the cells were measured by taking images using a fluorescence microscope (Leica, Wetzlar, Germany). […]

[4] = tested on: U87MG-Fluc glioblastoma; assay: Human glioblastoma (U87MG-Fluc) model, intranasal inoculation; type: in vivo, immunodeficient nude mice; conditions: 1 mg/kg intranasal, three inoculations
Experimental: as §2, with “A total of 2×10^5/10 μl C6-Fluc cells were injected using a 26-gauge Hamilton microsyringe (80330;” left out, “sutured. […] In vivo and ex vivo bioluminescence imaging was performed. For in vivo bioluminescence imaging, 150 mg/kg of D-luciferin (Caliper, Hopkinton, Mass.) was intraperitoneally injected into anesthetized animals. The live images were taken 15 minutes after the injection of D-luciferin by the IVIS Lumina caliper series (Life Technologies, Carlsbad, Calif.). To evaluate ex vivo bioluminescence, the excised brain tissue was incubated with a D-luciferin substrate for 15 minutes, followed by imaging as described above. […] The cancer volume was calculated using ImageJ software as described above.” for “sutured.”

[5] = tested on: C6-glioma cells; assay: TUNEL assay and Hoechst staining in cultured cells; type: cell-based, rat
Experimental: as §1

[6] = tested on: C-6 glioma cells; assay: Viability/apoptosis (calcein-AM / EthD-1) analysis; type: cell-based, rat; conditions: 24 hours
Experimental: as §1
An image was captured using a fluorescence microscope (Leica, Wetzlar, Germany). A percentage of live or dead cells was calculated using ImageJ software, developed by the National Institute of Health (NIH).

[7] = tested on: U87MG glioma cells; assay: Cell cycle (DNA content, PI) analysis; type: cell-based, human; conditions: 24 hours
Experimental: as §1

[8] = tested on: C6 glioblastoma cells; assay: Cell cycle (DNA content, PI) analysis; type: cell-based, rat; conditions: 10 μM PTX equivalent, 24 hours
Experimental: as §1
And then, the cells were collected, and fixed with 70% ethanol at 4° C. for 2 hours. After incubation, the cells were washed, and additionally incubated with a DNase-free RNase (1 mg/mL) and 0.02 mg/mL of propidium iodide (PI). A cell cycle profile was studied using a flow cytometer (BD FACS Calibur™), and analyzed using FlowJo software.

CC(=O)O[C@H]1C(=O)[C@@]2(C)[C@H]([C@H](OC(=O)c3ccccc3)[C@]3(O)C[C@H](OC(=O)[C@H](O)[C@@H](NC(=O)c4ccccc4)c4ccccc4)C(C)=C1C3(C)C)[C@]1(OC(C)=O)CO[C@@H]1C[C@@H]2O [PTX, Paclitaxel]
change in body weight [1]: significant effect on body weight loss | annexin V-positive cells ([2]; 1 μM): 30.1% | annexin V-positive cells ([2]; 10 μM): 33.1% | annexin V-positive cells ([2]; 50 μM): 34.2% | number of annexin V and 7-AAD-positive cells ([2]; various concentrations): concentration-dependently increased | tumor volume (Nissl staining) ([3]; 2 mg/kg PTX equivalent intranasal, PBS 98.4): 90.1 mm^3 | tumor progression (in vivo bioluminescence imaging) ([3]; 2 mg/kg PTX intranasal, three daily inoculations from day 4, up to day 14): relatively identical to the saline-treated group | increase in in vivo bioluminescence signals ([3]; day 14, 2 mg/kg intranasal): 1.0×10^8 fold | tumor growth / therapeutic effect compared with saline (BLI) [4]: did not show any therapeutic effect | nuclear morphology (Hoechst staining) ([5]; compared with non-treated glioma cells): severe formation of DNA fragmentation or segmentation or condensed nuclei | number of apoptotic cells stained with TUNEL ([5]; equivalent amounts of PTX): concentration-dependently increased | number of TUNEL-positive cells ([5]; fifth tested micromolar concentration (50 μM)): ~236.1 | number of TUNEL-positive cells ([5]; first tested micromolar concentration (0.01 μM)): approximately 77 | number of TUNEL-positive cells ([5]; fourth tested micromolar concentration (10 μM)): ~198.6 | number of TUNEL-positive cells ([5]; second tested micromolar concentration (0.1 μM)): ~97.5 | number of TUNEL-positive cells ([5]; third tested micromolar concentration (1 μM)): ~136.6 | dead cells ([6]; 0.01 μM): 8.3% | dead cells ([6]; 0.1 μM): 23.1% | dead cells ([6]; 1 μM): 31.8% | dead cells ([6]; 10 μM): 49.2% | dead cells ([6]; 50 μM): 63.8% | arrested population at the G2-M phase compared with C6 cells [7]: slightly higher arrested population at the G2-M phase | cells at the G1 phase [8]: 9% | cells at the G2-M phase ([8]; non-treated 29%): 83%
